pEC50: −log10 of the molar value.

In the assay the target is T1, Glucokinase (Homo sapiens, UniProt P35557).
T1 construct: purchased ProteinOne Inc
T1 sequence (P35557 1-465): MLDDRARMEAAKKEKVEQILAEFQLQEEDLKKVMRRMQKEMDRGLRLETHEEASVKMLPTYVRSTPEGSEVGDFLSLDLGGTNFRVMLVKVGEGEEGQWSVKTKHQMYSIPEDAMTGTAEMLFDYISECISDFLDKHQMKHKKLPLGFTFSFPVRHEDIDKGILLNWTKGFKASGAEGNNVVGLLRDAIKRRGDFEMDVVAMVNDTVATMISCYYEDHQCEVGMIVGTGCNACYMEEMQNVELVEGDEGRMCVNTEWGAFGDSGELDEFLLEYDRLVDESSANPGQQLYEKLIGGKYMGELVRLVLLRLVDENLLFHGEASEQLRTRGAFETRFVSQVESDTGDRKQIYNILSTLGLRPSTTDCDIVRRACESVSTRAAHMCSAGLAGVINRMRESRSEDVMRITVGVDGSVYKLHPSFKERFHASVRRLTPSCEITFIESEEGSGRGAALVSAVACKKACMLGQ
Put plainly: Glucokinase activation assay (NADPH absorbance at 340 nm). The following applies: glucokinase (ProteinOne Inc.), 5 mM D(+)-glucose, 24° C., 90 minutes. The class given is biochemical. The method, then: The amounts of glucokinase activation were determined by measuring the levels of NADPH (the final metabolite of glucose through glucokinase-mediated phospho-rylation) and then calculating to glucokinase activities.
Glucokinase (ProteinOne Inc.) was added, in the concentration of 100 ng/uL, to a enzyme-reaction medium (25 mM HEPES pH 7, 25 mM KCL, 1 mM MgCl, 5 mM D(+)-glucose, 1 mM ATP, 1 mM NADP, 1 mM DTT, and 2.5 u/mL G6PDH). Each compound in predetermined concentrations was added to the enzyme-reaction medium and then absorbance (First Absorbance) was measured at 340 nm of wavelength. After measuring the first absorbance, each reaction mixture was incubated at 24° C. for 90 minutes and then absorbance (Second Absorbance) was re-measured at 340 nm of wavelength. Using changes between First Absorbance and Second Absorbance, glucokinase activity was calculated. In the calculation, a maximum activity of the test compound (Emax), in comparison to the control group (no treatment of compound) was determined and then EC50 was calculated using the software for statistical analysis “Prism”, based on the activity-changes according to concentrations of the test compounds.
The amounts of glucokinase activation of the compounds of Comparative Examples 1 and 2 were determined, in accordance with the same procedures as in Test Example 1.

In general, pEC50 refers to the EC50 on a negative log10 scale, so that one unit is a factor of ten. A lower pEC50 goes with a high EC50. “3-[trans-2-(4-methoxyphenyl)vinyl]-5-(2-methoxy-(1S)-methyl-ethoxy)-N-(1-methyl-1H-pyrazol-3-yl)-benzamide [Example 41]” had a pEC50 of 6.61.
“3-[trans-2-(4-methoxyphenyl)vinyl]-5-(2-methoxy-(1S)-methyl-ethoxy)-N-(pyrazin-2-yl)-benzamide [Example 49]” showed a negative-log EC50 (pEC50) of 6.42.
The value for “3-[trans-2-(4-nitrophenyl)vinyl]-5-(2-methoxy-(1S)-methyl-ethoxy)-N-(5-fluorothiazol-2-yl)-benzamide [Example 21]” was 6.47; that for “3-[trans-2-(4-nitrophenyl)vinyl]-5-(2-methoxy-(1S)-methyl-ethoxy)-N-(thiazol-2-yl)-benzamide [Example 15]” was 6.89.
In the case of “3-{2-[3-(2-(thiophen-2-yl)acetylamino)phenyl]ethyl}-5-(2-methoxy-(1S)-methyl-ethoxy)-N-(thiazol-2-yl)-benzamide [Example 129]”, the pEC50 was 6.57.
In the case of “3-{2-[3-(3-ethyl-thio-ureido)phenyl]ethyl}-5-(2-methoxy-(1S)-methyl-ethoxy)-N-(thiazol-2-yl)-benzamide [Example 131]”, the pEC50 is 6.31.
The figure for “3-{2-[3-(3-methyl-butyrylamino)phenyl]ethyl}-5-(2-methoxy-(1S)-methyl-ethoxy)-N-(thiazol-2-yl)-benzamide [Example 120]” is 6.33; for “3-{2-[3-(3-phenyl-ureido)phenyl]ethyl}-5-(2-methoxy-(1S)-methyl-ethoxy)-N-(thiazol-2-yl)-benzamide [Example 130]” it is 6.64.
“3-{2-[3-(4-chlorobenzoylamino)phenyl]ethyl}-5-(2-methoxy-(1S)-methyl-ethoxy)-N-(t hiazol-2-yl)-benzamide [Example 126]” showed a pEC50 of 6.44.
In the case of “3-{2-[3-(4-fluorobenzoylamino)phenyl]ethyl}-5-(2-methoxy-(1S)-methyl-ethoxy)-N-(thiazol-2-yl)-benzamide [Example 125]”, the pEC50 is 6.47.
The value for “3-{2-[3-(4-nitrobenzoylamino)phenyl]ethyl}-5-(2-methoxy-(1S)-methyl-ethoxy)-N-(thiazol-2-yl)-benzamide [Example 127]” was 6.58; that for “3-{2-[3-(phenylacetylamino)phenyl]ethyl}-5-(2-methoxy-(1S)-methyl-ethoxy)-N-(thiazol-2-yl)-benzamide [Example 123]” was 6.65.
The value for “3-{2-[4-(2-(thiophen-2-yl)acetylamino)phenyl]ethyl}-5-(2-methoxy-(1S)-methyl-ethoxy)-N-(thiazol-2-yl)-benzamide [Example 143]” was 6.55; that for “3-{2-[4-(3,5-dimethoxybenzoylamino)phenyl]ethyl}-5-(2-methoxy-(1S)-methyl-ethoxy)-N-(thiazol-2-yl)-benzamide [Example 141]” was 6.45; that for “3-{2-[4-(3-ethyl-thio-ureido)phenyl]ethyl}-5-(2-methoxy-(1S)-methyl-ethoxy)-N-(thiazol-2-yl)-benzamide [Example 146]” was 6.34.
The figure for “3-{2-[4-(3-methyl-butyrylamino)phenyl]ethyl}-5-(2-methoxy-(1S)-methyl-ethoxy)-N-(thiazol-2-yl)-benzamide [Example 134]” is 6.45.
“3-{2-[4-(3-phenyl-ureido)phenyl]ethyl}-5-(2-methoxy-(1S)-methyl-ethoxy)-N-(thiazol-2-yl)-benzamide [Example 145]” had a negative-log EC50 (pEC50) of 6.50.
Consider “3-{2-[4-(4-chlorobenzoylamino)phenyl]ethyl}-5-(2-methoxy-(1S)-methyl-ethoxy)-N-(thiazol-2-yl)-benzamide [Example 140]”, for which the pEC50 is 6.36.
“3-{2-[4-(4-fluorobenzoylamino)phenyl]ethyl}-5-(2-methoxy-(1S)-methyl-ethoxy)-N-(t hiazol-2-yl)-benzamide [Example 139]” had a pEC50 of 6.43.

The values are drawn from patent US20120178765A1, “NOVEL GLUCOKINASE ACTIVATORS AND PROCESSES FOR THE PREPARATION THEREOF” (YUHAN CORPORATION, priority 2009, published 2012).
